Biological target: thromboxane A2 receptor (TBXA2R) (Gα13) (Homo sapiens, UniProt P21731)
Assay: BRET² G protein dissociation assay, TBXA2R with Gα13
Assay type: cell-based
Conditions: for Mean (plotted), G protein dissociation BRET² signal: TBXA2R-G13, Fig. 5c source data
Procedure: G protein dissociation assays were performed according to the original protocols of the TRUPATH BRET² assay[47],[87] but with subtle modifications as previously described[61],[88],[89]. All reagents and cells were obtained from Thermo Fisher Scientific unless indicated otherwise. The coding sequences for the G protein biosensors[47] (Gα12-Rluc8, Gα13-Rluc8, wt Gβ3, and Gγ9-GFP), the wt GPR55, the construct used for cryo-EM (with GFP bearing a G67A mutation to disrupt fluorescence properties[48] for BRET² assays), GPR55 binding pocket mutants (G152^4.56F, G152^4.56W, N171^ECL2Q, N171^ECL2A, T176^5.33A, R253^6.62A), and the wt TBXA2R were codon-optimized for Homo sapiens, gene-synthesized, and sub-cloned into pcDNA^TM3.1(+) between NheI and HindIII restriction sites by GeneArt (Thermo Fisher Scientific). […] Freshly grown cells were washed with Dulbecco’s Balanced Salt Solution (DPBS, cat. #14200075) and detached using trypsin-ethylenediaminetetraacetic acid (trypsin-EDTA) (cat. #25300-062). Then, the cells were reconstituted to 500,000 cells per mL with fresh medium, and 1,000,000 cells were seeded into each well of a 6-well plate. After 3 h incubation at 37 °C and 5% CO2, adherent cells were transfected with 600 ng DNA (1:1:1:1 ratio of plasmid DNA for GPR55, wt Gβ3, Gγ9-GFP, and Gα12-Rluc8 or Gα13-Rluc8). Plasmid DNA was mixed with 1.5 µL Lipofectamine^TM 2000 (cat. #11668027) in Opti-MEM^TM medium (cat. #31985062) and incubated for 20 min. Then, the mixture was added to each well of the 6-well plate following 24 h incubation at 37 °C and 5% CO2. Transfected cells were washed with DPBS, detached using EDTA (Versene, cat. #15040066), and reconstituted into fresh medium at 500,000 cells mL^−1. From this suspension, 50,000 cells were seeded into each well of a white-bottom 96-well plate (Nunc^TM MicroWell^TM 96 wells, cat. #136101) following overnight incubation at 37 °C and 5% CO2. Then, the adherent cells were washed with assay medium [Hank’s balanced salt solution (HBSS, cat. #14065056) plus 20 mM HEPES pH 7.4 (cat. #15630056)] and finally reconstituted into 50 µL of the same medium. […] Methoxy e-Coelenterazine was used as luciferase substrate (Prolume Purple, NanoLight Technology, cat. #369), reconstituted at 1 mM in methanol and diluted to 37.5 µM with assay buffer (7.5 µM final assay concentration). The assay was started by the addition of 20 µL luciferase substrate to each well of the assay plate using a Multidrop^TM Combi reagent dispenser (Thermo Fisher Scientific), followed by 5 min incubation at room temperature. Then, 30 µL of agonist dilutions or DMSO control was added (final DMSO concentration 1.5%), followed by an additional 5 min incubation at room temperature.

Sequence of thromboxane A2 receptor (TBXA2R) (Gα13) (P21731 whole entry, species assumed): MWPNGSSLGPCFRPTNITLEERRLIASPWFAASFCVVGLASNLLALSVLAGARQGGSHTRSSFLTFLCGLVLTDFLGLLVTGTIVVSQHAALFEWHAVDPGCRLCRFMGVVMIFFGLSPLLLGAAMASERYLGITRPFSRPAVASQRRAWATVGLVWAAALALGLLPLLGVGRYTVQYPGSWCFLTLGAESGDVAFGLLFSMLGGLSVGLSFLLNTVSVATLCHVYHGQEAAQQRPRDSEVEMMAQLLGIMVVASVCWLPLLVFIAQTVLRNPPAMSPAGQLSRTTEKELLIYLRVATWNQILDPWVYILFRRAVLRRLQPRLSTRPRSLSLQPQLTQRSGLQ
Sequence of thromboxane A2 receptor (TBXA2R) (Gα13) (Q14344 whole entry partner, species assumed): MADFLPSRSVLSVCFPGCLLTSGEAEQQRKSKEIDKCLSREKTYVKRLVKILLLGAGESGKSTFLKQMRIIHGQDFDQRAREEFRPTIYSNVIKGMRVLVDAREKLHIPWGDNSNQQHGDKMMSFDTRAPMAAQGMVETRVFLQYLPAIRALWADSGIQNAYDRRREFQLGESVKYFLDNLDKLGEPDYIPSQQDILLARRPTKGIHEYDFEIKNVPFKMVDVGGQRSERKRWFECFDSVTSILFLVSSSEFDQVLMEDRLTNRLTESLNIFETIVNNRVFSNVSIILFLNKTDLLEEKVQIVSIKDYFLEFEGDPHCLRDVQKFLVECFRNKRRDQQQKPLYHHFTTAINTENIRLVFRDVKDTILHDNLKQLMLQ
Sequence of thromboxane A2 receptor (TBXA2R) (Gα13) (P16520 whole entry partner, species assumed): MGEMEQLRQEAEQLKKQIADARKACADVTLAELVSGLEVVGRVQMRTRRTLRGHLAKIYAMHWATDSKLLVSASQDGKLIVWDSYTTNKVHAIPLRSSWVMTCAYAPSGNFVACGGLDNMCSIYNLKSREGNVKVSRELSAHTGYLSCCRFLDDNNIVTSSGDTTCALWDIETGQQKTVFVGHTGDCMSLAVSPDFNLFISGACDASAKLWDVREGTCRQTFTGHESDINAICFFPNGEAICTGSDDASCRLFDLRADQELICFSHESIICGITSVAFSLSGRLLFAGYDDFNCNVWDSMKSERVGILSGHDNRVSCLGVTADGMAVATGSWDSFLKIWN
Sequence of thromboxane A2 receptor (TBXA2R) (Gα13) (O14610 1-66 partner limits assumed, species assumed): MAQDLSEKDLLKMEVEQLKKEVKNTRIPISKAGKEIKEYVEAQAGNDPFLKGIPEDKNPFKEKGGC

| Mean (plotted), G protein dissociation BRET² signal (concentration 300 pM) | Mean (plotted), G protein dissociation BRET² signal (concentration 1e-9 M) | Mean (plotted), G protein dissociation BRET² signal (concentration 3e-9 M) | Mean (plotted), G protein dissociation BRET² signal (concentration 1e-8 M) | Mean (plotted), G protein dissociation BRET² signal (concentration 3e-8 M) | Mean (plotted), G protein dissociation BRET² signal (concentration 1e-7 M) | Mean (plotted), G protein dissociation BRET² signal (concentration 3e-7 M) | Mean (plotted), G protein dissociation BRET² signal (concentration 1e-6 M) | Mean (plotted), G protein dissociation BRET² signal (concentration 3e-6 M) | Mean (plotted), G protein dissociation BRET² signal (concentration 1e-5 M) | Mean (plotted), G protein dissociation BRET² signal (concentration 3e-5 M) | Efficacy ± SEM (%) (TBXA2, Gα13) | pEC50 ± SEM (TBXA2, Gα13) | EC50 (TBXA2R via Gα13, read-out: potency (EC50)) | Mean (plotted), G protein dissociation BRET² signal (concentration 10 pM) | Mean (plotted), G protein dissociation BRET² signal (concentration 30 pM) | SMILES |
| --- | --- | --- | --- | --- | --- | --- | --- | --- | --- | --- | --- | --- | --- | --- | --- | --- |
| -0.002664 | -0.001942 | -0.0001851 | 0.008857 | 0.0122 | 0.01041 | 0.01174 | 0.01712 | 0.01801 | 0.01748 | 0.01231 | – | – | – | – | – | Cc1cccc(N2CCN(C(=O)c3cc(S(=O)(=O)N(C)C)ccc3N3CCCC3)CC2)c1C [ML184, 3-[[4-(2,3-dimethylphenyl)-1-piperazinyl]carbonyl]-N,N-dimethyl-4-(1-pyrrolidinyl)benzenesulfonamide] |
| -0.03967 | -0.07222 | -0.103 | – | -0.1326 | – | -0.1394 | -0.1409 | – | – | – | 100 ± 2% | 9.03 ± 0.11 | 0.93 nM | 0.004083 | 0.00585 | CCCCC[C@H](O)/C=C/[C@@H]1[C@@H](C/C=C\CCCC(=O)O)[C@H]2CO[C@@H]1C2 [U-46619] |
